In PubChem BioAssay AID2067 (The Scripps Research Institute Molecular Screening Center, 2009):

Biological target: Collagenase 3 (Homo sapiens) (UniProt P45452)
Assay: potency against MMP13, MMP2, MMP3, MMP14 – biochemical, probe development, late stage results, selectivity assay for MMP13 inhibitor project, late-stage follow-up (AID 2067)
Conditions: recombinant MMP panel, fTHP FRET substrate cleavage, MMP-13; for Ki: Ki assay, MMP-13 Ki, Lineweaver-Burk

In the case of `Cc1ccc(CSc2nc3c(c(=O)[nH]2)CCC3)cc1`, the IC50 is reported as 2440 nM and the Ki is reported as 840 nM.
`O=c1[nH]c(SCc2ccc(Cl)cc2)nc2c1CCC2` showed an IC50 of 3360 nM and a Ki of 3800 nM.
With `COC(=O)c1ccc(CSc2nc3c(c(=O)[nH]2)CCC3)cc1` the IC50 was 2820 nM and the Ki was 1500 nM.
